Results published in PubChem BioAssay AID330 (DTP/NCI, 2004).
Inconclusive results and toxic doses are left out.

System: P388 leukemia ip, CD2F1 mice, survival T/C
Assay: NCI In Vivo Anticancer Drug Screen. Data for tumor model P388 Leukemia (intraperitoneal) in CD2F1 (CDF1) mice
Details: endpoint: median survival time, higher = longer survival
Method in brief: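 Mice carrying the transplanted tumor received test compound or vehicle. Survival was recorded in each group, and the value is the treated-group measurement divided by that of the vehicle-treated control group.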

[1] = dose: 50.0 mg/kg/injection, schedule: Q01DX005 (ip), vehicle: saline with Tween-80
[2] = dose: 50.0 mg/kg/injection, schedule: Q01DX009 (ip), vehicle: Klucel (hydroxypropylcellulose) (HPC)
[3] = dose: 100.0 mg/kg/injection, schedule: Q01DX009 (ip), vehicle: Klucel (hydroxypropylcellulose) (HPC)
[4] = dose: 200.0 mg/kg/injection, schedule: Q01DX009 (ip), vehicle: Klucel (hydroxypropylcellulose) (HPC)
[5] = dose: 50.0 mg/kg/injection, schedule: Q01DX009 (ip), vehicle: saline with Tween-80
[6] = dose: 100.0 mg/kg/injection, schedule: Q01DX009 (ip), vehicle: saline with Tween-80

COc1cccc2c1C(=O)c1c(O)c3c(c(O)c1C2=O)C[C@@](O)(C(C)=O)CC3OC1CC(NC(=O)C(C)N)C(O)C(C)O1 (some centres undefined)
T/C (dose: 6.25 mg/kg/injection, schedule: Q04DX003 (ip), vehicle: saline): 108 % of control | T/C (dose: 12.5 mg/kg/injection, schedule: Q04DX003 (ip), vehicle: saline): 115 % of control | T/C (dose: 50.0 mg/kg/injection, schedule: Q04DX003 (ip), vehicle: saline): 150 % of control

OC1C(O)C(O)C(O)C(O)C1O.[Cu+2].[Cu] (centres undefined)
T/C (dose: 3.12 mg/kg/injection, schedule: Q01DX005 (ip), vehicle: Klucel (hydroxypropylcellulose) (HPC)): 93 % of control | T/C (dose: 6.25 mg/kg/injection, schedule: Q01DX005 (ip), vehicle: Klucel (hydroxypropylcellulose) (HPC)): 93 % of control | T/C (dose: 12.5 mg/kg/injection, schedule: Q01DX005 (ip), vehicle: Klucel (hydroxypropylcellulose) (HPC)): 94 % of control | T/C (dose: 25.0 mg/kg/injection, schedule: Q01DX005 (ip), vehicle: Klucel (hydroxypropylcellulose) (HPC)): 100 % of control

CCOC(=O)C1(Br)CC2(C1)CC(Br)(C(=O)OCC)C2 (centres undefined)
T/C (dose: 100.0 mg/kg/injection, schedule: Q04DX002 (ip), vehicle: saline with Tween-80): 101 % of control | T/C (dose: 200.0 mg/kg/injection, schedule: Q04DX002 (ip), vehicle: saline with Tween-80): 103 % of control | T/C (dose: 400.0 mg/kg/injection, schedule: Q04DX002 (ip), vehicle: saline with Tween-80): 100 % of control

O=C1c2ccccc2C(=O)N1CCC[P+](c1ccccc1)(c1ccccc1)c1ccccc1
T/C (dose: 1.56 mg/kg/injection, schedule: Q01DX009 (ip), vehicle: saline): 122 % of control

O=[N+]([O-])C(Cc1ccccc1)Cc1ccccc1
T/C [1]: 98 % of control | T/C (dose: 100.0 mg/kg/injection, schedule: Q01DX005 (ip), vehicle: saline with Tween-80): 103 % of control | T/C (dose: 200.0 mg/kg/injection, schedule: Q01DX005 (ip), vehicle: saline with Tween-80): 97 % of control

COc1ccc(N=c2nc3n4c(c(Br)cc(Br)c4n2)NC(C(Br)(Br)Br)=N3)cc1
T/C (dose: 60.0 mg/kg/injection, schedule: Q01DX005 (ip), vehicle: saline with Tween-80): 90 % of control | T/C (dose: 120.0 mg/kg/injection, schedule: Q01DX005 (ip), vehicle: saline with Tween-80): 92 % of control | T/C (dose: 240.0 mg/kg/injection, schedule: Q01DX005 (ip), vehicle: saline with Tween-80): 100 % of control

O=C1CC2(CCCC2)C(=O)N1c1ccc(O)c(CN2CCCCC2)c1
T/C [2]: 99 % of control | T/C [3]: 104 % of control | T/C [4]: 98 % of control

BrC1(Br)C2CCCCCCC21 (centres undefined)
T/C [5]: 100 % of control | T/C (dose: 50.0 mg/kg/injection, schedule: Q04DX003 (ip), vehicle: saline with Tween-80): 100 % of control | T/C [6]: 100 % of control | T/C (dose: 100.0 mg/kg/injection, schedule: Q04DX003 (ip), vehicle: saline with Tween-80): 104 % of control | T/C (dose: 200.0 mg/kg/injection, schedule: Q01DX009 (ip), vehicle: saline with Tween-80): 100 % of control | T/C (dose: 200.0 mg/kg/injection, schedule: Q04DX003 (ip), vehicle: saline with Tween-80): 104 % of control

O=C1CSC(=S)N1Cc1cccnc1
T/C [2]: 100 % of control | T/C [3]: 102 % of control | T/C [4]: 106 % of control

CC1=[N+]([O-])[N+]([O-])=C(c2ccccc2)C1=O
T/C (dose: 25.0 mg/kg/injection, schedule: Q01DX009 (ip), vehicle: saline with Tween-80): 107 % of control | T/C [5]: 92 % of control | T/C [6]: 107 % of control

N#Cc1cnn(-c2ccc([N+](=O)[O-])cc2[N+](=O)[O-])c1N
T/C (dose: 50.0 mg/kg/injection, schedule: Q01DX009 (ip), vehicle: saline): 101 % of control | T/C (dose: 100.0 mg/kg/injection, schedule: Q01DX009 (ip), vehicle: saline): 100 % of control | T/C (dose: 200.0 mg/kg/injection, schedule: Q01DX009 (ip), vehicle: saline): 108 % of control

O=C(O)C(CS(=O)(=O)O)S(=O)(=O)O (centres undefined)
T/C (dose: 7.5 mg/kg/injection, schedule: Q01DX009 (ip), vehicle: saline with Tween-80): 110 % of control | T/C (dose: 15.0 mg/kg/injection, schedule: Q01DX009 (ip), vehicle: saline with Tween-80): 109 % of control | T/C (dose: 30.0 mg/kg/injection, schedule: Q01DX009 (ip), vehicle: saline with Tween-80): 106 % of control

CCCCCCN=Cc1c(O)c(O)c(C(C)C)c2cc(C)c(-c3c(C)cc4c(C(C)C)c(O)c(O)c(C=NCCCCCC)c4c3O)c(O)c12
T/C (dose: 12.0 mg/kg/injection, schedule: Q01DX005 (ip), vehicle: saline with Tween-80): 100 % of control | T/C (dose: 25.0 mg/kg/injection, schedule: Q01DX005 (ip), vehicle: saline with Tween-80): 92 % of control | T/C [1]: 96 % of control

OC(Cc1cccnc1)(c1ccccc1)c1ccccc1
T/C [2]: 111 % of control | T/C [3]: 109 % of control | T/C [4]: 118 % of control
